What was measured:
[1] = Biological activity level of mycolactones (test not specified)
[2] = test system: infiltration of macrophages and polymorphonuclear neutrophils; test: Inflammatory reaction at site of M. marinum infection in guinea pigs; assay type: in vivo, Hartley guinea pigs; details: 16 hours after infection
Method: Mycolactone was purified as in Example 2. Hartley guinea pigs were inoculated with an infectious quantity of M. marinum. When the inoculum was not accompanied by mycolactone, a painful, purulent lesion developed in the guinea pigs, indicative of an inflammatory reaction. In contrast, when mycolactone was injected into the locus, tissue necrosis still developed, but the infiltration of macrophages and polymorphonuclear neutrophils was delayed by 24 to 48 hours, resulting in greater than a 1,000-fold reduction in the number of neutrophils invading the site of infection 16 hours after infection. Inflammation, or the lack thereof, was confirmed by histopathological examination of paraffin embedded tissues stained with eosin and hematoxylin. While not desiring to be bound by any particular theory, it is believed that the subsequent inflammation that occurred in mycolactone-treated animals was partially a consequence of the continued growth of M. marinum. When the polyketide macrolides of the present invention are used to decrease inflammation at a site of infection, the inventive method is optionally accompanied by the administration of antibiotics.

[3] = test system: SF-268 central nervous system cancer cells; test: National Cancer Institute growth testing, SF-268; assay type: cell-based
Method: (§1) Acetone-soluble lipids (ASLs) were prepared from intact M. ulcerans cells as in Example 1, except that the acetone resuspension was applied to a preparative TLC plate to allow substantial separation of the ASLs based on relative mobility in the TLC system. The ASL with a mobility of 0.23 relative to the solvent front was scraped from the plate and resuspended.

H460 lung cancer cells = test: National Cancer Institute growth testing, H460; assay type: cell-based
Method: as §1

[4] = test system: MCF-7 breast cancer cells; test: National Cancer Institute growth testing, MCF-7; assay type: cell-based
Method: as §1

CC(=C\C=C\C(C)=C\C[C@@H](O)C[C@H](C)O)/C=C(C)/C=C/C(=O)O[C@H]1CCCC(=O)O[C@@H]([C@@H](C)C/C(C)=C/[C@@H](C)[C@H](O)C[C@@H](C)O)C/C=C(\C)C[C@@H]1C [mycolactone C]
activity level relative to the other mycolactones ([1]; mycolactone found in Australian isolates): about 10,000 fold lower

C/C1=C/C[C@H]([C@@H](C)C/C(C)=C/[C@@H](C)[C@H](O)C[C@@H](C)O)OC(=O)CCC[C@H](OC(=O)/C=C/C(C)=C/C(C)=C/C=C/C(C)=C/[C@H](O)[C@@H](O)C[C@H](C)O)[C@@H](C)C1 [B]
biological activity of isomers compared ([1]; isomers differing at the 4′ position): same biological activity

CC(=C/C(C)=C/C=C/C(C)=C/C(O)C(O)CC(C)O)/C=C/C(=O)OC1CCCC(=O)OC(C(C)C/C(C)=C/C(C)C(O)CC(C)O)C/C=C(\C)CC1C (stereo not drawn) [mycolactone]
reduction in the number of neutrophils invading the site of infection [2]: > 1,000 fold | relative growth rate [3]: −79% | relative growth rate (H460 lung cancer cells): −72% | relative growth rate [4]: −78%
